# Assay results from publication PMC11152574, “A parameterized two-domain thermodynamic model explains diverse mutational effects on protein allostery” (eLife, 2024).
# Target: TetR(B) (Escherichia coli, UniProt P04483)
# Test: GFP reporter induction in E. coli, Bayesian fit of two-domain thermodynamic model
# Assay type: cell-based
# Conditions: 37 °C; LB culture; apparent Kd inferred from in vivo induction curve, K of active LBD set to 1 nM; order-of-magnitude model estimate, not a direct binding measurement; unreliable
# Experimental: GFP reporter induction in E. coli, Bayesian fit of two-domain thermodynamic model on TetR(B) | apparent dissociation constant of WT TetR to ligand is calculated as […]
# Sequence of TetR(B) (P04483 whole entry, looked up): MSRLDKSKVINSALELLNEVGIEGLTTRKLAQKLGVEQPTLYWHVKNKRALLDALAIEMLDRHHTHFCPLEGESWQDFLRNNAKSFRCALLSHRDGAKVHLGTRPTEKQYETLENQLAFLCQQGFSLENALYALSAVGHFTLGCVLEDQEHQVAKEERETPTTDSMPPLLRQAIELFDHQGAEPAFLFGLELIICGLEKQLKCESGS
smiles,measurement,value
Cc1c2c(c(O)c3c(O)cccc13)C(=O)[C@]1(O)C(=O)C(C(N)=O)=C(O)[C@@H](N(C)C)[C@@H]1C2 [anhydrotetracycline],K apparent WT,27.1 nM
